Experimental data reported in EP0233686A2, “Bis phenyl ethanol amines and bis phenyoxypropanolamines having a beta-agonist activity” (BEECHAM GROUP PLC, priority 1986, dated 1987).
Counter-ions that a name gives are not always drawn.

Tested on: Female CFLP mice
Assay: Hypoglycaemic activity: oral compound, then subcutaneous glucose load in fasted mice; area under the blood glucose curve over 2 hours compared with water controls
Format: in vivo
Conditions: Mus musculus, mice fasted for 24 hours, glucose 1g/kg s.c. 30 minutes after dosing, 2 hour AUC vs water controls, read-out: % reduction in area under blood glucose curve; for inhibition in vivo at 3 µmol/kg: dose 3 µmol/Kg p.o.
Method: Female CFLP mice, weighing approximately 25g, were fasted for 24 hours prior to the study. The compounds under study were administered orally as an aqueous solution to each of 6 mice. 30 minutes later a blood sample (20ul) was obtained from the tail for the analysis of blood glucose. Immediately after taking this blood sample, glucose (lg/kg body weight) was administered subcutaneously to each mouse. 6 mice were -given water as a control. Blood samples were then obtained from each mouse at 30 minute intervals for 120 minutes. Compounds that produced a significant (p>0.05) reduction of blood glucose, compared with control mice given water, at any time interval were considered active. The area under the blood glucose curve over the 2 hour period after the administration of the glucose was calculated for each compound and compared with the value for control animals.

C[C@H](Cc1ccc(OCC(=O)NCCNC(=O)COc2ccc(C[C@@H](C)NC[C@H](O)c3cccc(Cl)c3)cc2)cc1)NC[C@H](O)c1cccc(Cl)c1 [Example 1, [R,R,R,R]-N,N'-(1,2-Ethanediyl)bis[2-[4-[2-[(2-(3-chlorophenyl)-2-hydroxyethyl)amino]propyl]phenoxy]acetamide]]
inhibition in vivo at 12.5 µmol/kg (dose 12.5 µmol/Kg p.o.): 43%

C[C@H](Cc1ccc(OCCCCCCOc2ccc(C[C@@H](C)NC[C@H](O)c3cccc(Cl)c3)cc2)cc1)NC[C@H](O)c1cccc(Cl)c1 [Example 3, [R,R,R,R]-α,α'[1,6-Hexanediylbis[oxy-4,1-phenylene(1-methyl-2,1-ethanediyl)iminomethylene]]bis[3-chlorobenzenemethanol], dihydrochloride]
inhibition in vivo at 1 µmol/kg (dose 1.0 µmol/Kg p.o.): 55%

C[C@H](Cc1ccc(S(=O)(=O)c2ccc(C[C@@H](C)NC[C@H](O)c3cccc(Cl)c3)cc2)cc1)NC[C@H](O)c1cccc(Cl)c1 [Example 6, [R,R,R,R]-α,α'-[Sulphonylbis[4,1-phenylene(1-methyl-2,1-ethanediyl)iminomethylene]]bis|3-chlorobenzenemethanol] dihydrochloride]
inhibition in vivo at 3 µmol/kg: 30%

C[C@H](Cc1ccc(C(O)(CO)c2ccc(C[C@@H](C)NC[C@H](O)c3cccc(Cl)c3)cc2)cc1)NC[C@H](O)c1cccc(Cl)c1 [Example 7, [R,R,R,R]-1,1-di[4-[2-[[2-(3-chlorophenyl)-2-hydroxyethyl]amino]propyl]phenyl]-1,2-ethanediol, dihydrochloride]
inhibition in vivo at 2.5 µmol/kg (dose 2.5 µmol/Kg p.o.): 17%

C[C@H](Cc1ccc(OCCCCCCCCCOc2ccc(C[C@@H](C)NC[C@H](O)c3cccc(Cl)c3)cc2)cc1)NC[C@H](O)c1cccc(Cl)c1 [Example 13, [R,R,R,R,]-α,α'[1,9-Nonanediylbis[oxy-4,1-phenylene (1-methyl-2,1-ethanediyl)iminomethylene]]bis[3-chlorobenzenemethanol], dihydrochloride]
inhibition in vivo at 3 µmol/kg: 34%

C[C@H](Cc1ccc(CNCCCCNCc2ccc(C[C@@H](C)NC[C@H](O)c3cccc(Cl)c3)cc2)cc1)NC[C@H](O)c1cccc(Cl)c1 [Example 16, [R,R,R,R]-α,α'-[1,4-Butanediylbis[iminomethylene-4,1-phenylene(1-methyl-2,1-ethanediyl)iminomethylene]]bis [3-chlorobenzenemethanol, tetrahydrochloride]
inhibition in vivo at 3 µmol/kg: 8%

C[C@H](Cc1ccc(CCCCCCc2ccc(C[C@@H](C)NC[C@H](O)c3cccc(Cl)c3)cc2)cc1)NC[C@H](O)c1cccc(Cl)c1 [Example 19, [R,R,R,R]-α,α'-[1,6-Hexanediylbis[4,1-phenylene (1-methyl-2,1-ethanediyl)iminomethylene]] bis[3-chlorobenzenemethanol], dihydrochloride]
inhibition in vivo at 10 µmol/kg (dose 10 µmol/Kg p.o.): 11%

C[C@H](Cc1ccc(OCCCCCOc2ccc(C[C@@H](C)NC[C@H](O)c3cccc(Cl)c3)cc2)cc1)NC[C@H](O)c1cccc(Cl)c1 [Example 20, [R,R,R,R]-α,α'-[1,5-Pentanediylbis[oxy-4,1-phenylene (1-methyl-2,1-ethanediyl)iminomethylene]] bis[3-chlorobenzenemethanol], dihydrochloride]
inhibition in vivo at 0.1 µmol/kg (dose 0.1 µmol/Kg p.o.): 51%
